Consider 8 substances from patent publication US7795495B2, “Transgenic mice for screening for inhibitors of protein aggregation and methods for making and using them” (The Regents of the University of California, priority 2000, dated 2010).

Data set [1] relates to B103 cells. The data set is described as follows: B103 cells overexpressing synuclein: cell adhesion and neurite extension. The class given is cell-based. The conditions noted are these: catalase 100 µg/ml, superoxide dismutase 100 U/ml, vitamin E 500 µM.
For data set [2], the system named is GT1-7 murine hypothalamic neuronal cells. The data set is described as follows: GT1-7 cells overexpressing α-synuclein: mitochondrial alterations and oxidative stress. The class given is cell-based. How it is done: To determine if the overexpression of α-synuclein causes dysregulated neuronal function, GT1-7 cells were transfected with the mammalian expression vector pCR3.1 (Invitrogen) using standard transfection protocols well known in the art. The cells were transfected with or without insertion of murine α-synuclein cDNA. The resulting expression of α-synuclein was measured at both mRNA and protein levels using RPA and immunoblotting analysis. Clones which either overexpressed or underexpressed α-synuclein (via transfection with an anti-sense plasmid) were selected and analyzed. […] These alterations were ameliorated by pretreatment with the anti-oxidant, vitamin E. Furthermore, α-synuclein overexpression in GT1-7 cells results in the formation of α-synuclein—immunopositive inclusion-like structures.

The target of data set [3] is SDS-resistant complexes of α-synuclein and Aβ1-40 (Homo sapiens, UniProt P37840). The data set is described as follows: Formation of SDS-resistant complexes of α-synuclein and Aβ1-40, immunoblotting analysis. The class given is biochemical. The conditions noted are these: 10 µM α-synuclein, 10 µM Aβ1-40, 100 µM peptide. An excerpt:
Those in the art generally agree that β-Synuclein blocks Aβ proto-fibril formation by one of two possible mechanistic pathways. In the first pathway, inhibition is facilitated through indirectly blocking NAC or α-synuclein interaction with Aβ. In the second possible pathway, inhibition is facilitated by the direct blocking Aβ aggregation.
(In general: In western blotting, separated proteins are transferred to a membrane and probed.)

A short description of data set [4]: Aggregation of synuclein proteins under high temperature conditions (SDS-PAGE/Coomassie brilliant blue). The class given is physicochemical. The conditions noted are these: 20 µM protein, pH 6.9, 65 °C, 0, 8 and 20 hours. How it is done: Each of the protein samples (20 µM) was incubated under pH 6.9, 65° C. conditions for 0, 8, and 20 hours. The incubated samples were run over SDS-PAGE and the resulting protein bands visualized by Coomassie/brilliant blue staining (FIG. 2).

The test system of data set [5] is B103 neuroblastoma cells. The data set is described as follows: Aβ cytotoxicity in B103 neuroblastoma cells. The conditions noted are these: for effect on Aβ cytotoxicity / cell survival: Aβ 20 µM, serum-free, three days, protein 20 µM. The class given is cell-based. How it is done:
When B103 neuroblastoma cells were incubated with Aβ (20 µM) under serum-free conditions for three days, dead cells become prominent due to the cytotoxic effects of Aβ.

In data set [6] the test system is α-synuclein tg mice. In words: Bigenic crosses: β-synuclein overexpression in α-synuclein tg mice (rotorod, neuropathological analysis). The class given is in vivo. An excerpt:
Motor deficits in Lewy body disease are associated with degeneration of the nigral dopaminergic neurons projecting to the striatum. To determine if loss of dopaminergic input to the striatum in transgenic mice is associated with Parkinson's disease related neurological impairments, mice were examined with a rotorod test, a behavioral testing mechanism well known to those familiar with such procedures. […] The dopaminergic and behavioral deficits were detected only in the high expression line and not in low-expression lines. […] This may lead to the conclusion that a critical threshold of α-synuclein accumulation is required for dopaminergic and behavioral deficits to become detectable. None-the-less, the evaluation of such neurophysiological characteristics, as previously described, are well known to those of skill in such evaluations. As such, it is apparent that the increased expression of wild-type α-synuclein plays a key role in the pathogenesis of neurodegenerative conditions associated with amyloidogenesis.

Consider vitamin E, for which the “effect of anti-oxidants on altered adhesion and neurite outgrowth of synuclein overexpressing cells” value (shortened to “effect of anti-oxidants”) in data set [1] is recorded as “little effect”. In data set [2], the “effect of pretreatment on alterations caused by α-synuclein overexpression (mitochondrial alterations, free radicals, glutathione, gonadotropin-releasing hormone secretion)” value was “ameliorated”.

Regarding “51-60 (Seq ID #11): synthetic peptide, amino acids 51-61 of β-synuclein: Gly Val Ala Ser Val Ala Glu Lys Thr Lys Glu (GVASVAEKTKE; listed as Homo sapiens)”, the “suppression of the formation of SDS-resistant complexes of α-synuclein and Aβ1-40” value is reported as “significant suppression” in data set [3] and “suppression” in data set [3] (listed as a.a. 51-61 of β-synuclein).

As to α-synuclein [reference compound], the “formation of aggregates / amyloid-like fibrils under high temperature conditions” value in data set [4] is “positive aggregation”. For the same substance, in data set [5], the “effect on Aβ cytotoxicity / cell survival” value is “detrimental to cell survival” and the “effect on Aβ toxicity in neuroblastoma cell (summary statement)” value is on record as “enhances Aβ toxicity”.

With superoxide dismutase, in data set [1], the “effect of anti-oxidants” value is given as “little effect”.

As for “β-synuclein .delta.2: β-synuclein mutant with amino acids 63-72 of NAC N-terminal inserted by site-directed mutagenesis”, the “formation of aggregates / amyloid-like fibrils under high temperature conditions” value in data set [4] is recorded as “aggregated to form amyloid-like fibrils”.

In the case of “β-synuclein .delta.1: β-synuclein mutant with amino acids 72-83 of NAC inserted by site-directed mutagenesis”, the “formation of aggregates / amyloid-like fibrils under high temperature conditions” value in data set [4] is listed as “aggregated to form amyloid-like fibrils”.

Take β-synuclein: the “motor deficits, rotorod performance” value in data set [6] (β-synuclein overexpression in α-synuclein tg mice (bigenic crosses), FIG. 14) is “reduced the motor deficits”. Moreover, in data set [6] (β-synuclein overexpression in α-synuclein tg mice, FIG. 16), the neuronal loss result is “reduction neuronal loss”. For the same substance, the neuronal inclusions entry in data set [6] (β-synuclein overexpression in α-synuclein tg mice, neuropathological analysis, FIG. 15) is “reduction of neuronal inclusions”. Further, the “formation of aggregates / amyloid-like fibrils under high temperature conditions” value in data set [4] was “fails to show any formation of aggregates”. Moreover, in data set [5], the “effect on Aβ cytotoxicity / cell survival” value was “blocked the effects of this cytotoxicity” and the “effect on Aβ toxicity in neuroblastoma cell (summary statement)” value was “protective”.

On to catalase, for which the “effect of anti-oxidants” value in data set [1] is given as “little effect”.
